Patent US20250255792A1, “Methods of Using a Small Molecule Chemical Compound to Reduce the Appearance of Rhytids and Wrinkles” (BirchBioMed Inc., priority 2022, published 2025)
Entries after “also recorded” stand apart in the source; their conditions may differ.

How the values were obtained:
[1] = system: collagen 1; settings: dermal fibroblasts; cited from earlier work
[2] = system: rabbit ear hypertrophic scarring model; settings: topical application to skin tissue; cited from earlier work
[3] = system: MMP-1; settings: dermal fibroblasts; cited from earlier work
[4] = target: T1, aryl hydrocarbon receptor (AhR) (Homo sapiens, UniProt P35869); settings: cited from earlier work
T1 sequence (P35869 11-848): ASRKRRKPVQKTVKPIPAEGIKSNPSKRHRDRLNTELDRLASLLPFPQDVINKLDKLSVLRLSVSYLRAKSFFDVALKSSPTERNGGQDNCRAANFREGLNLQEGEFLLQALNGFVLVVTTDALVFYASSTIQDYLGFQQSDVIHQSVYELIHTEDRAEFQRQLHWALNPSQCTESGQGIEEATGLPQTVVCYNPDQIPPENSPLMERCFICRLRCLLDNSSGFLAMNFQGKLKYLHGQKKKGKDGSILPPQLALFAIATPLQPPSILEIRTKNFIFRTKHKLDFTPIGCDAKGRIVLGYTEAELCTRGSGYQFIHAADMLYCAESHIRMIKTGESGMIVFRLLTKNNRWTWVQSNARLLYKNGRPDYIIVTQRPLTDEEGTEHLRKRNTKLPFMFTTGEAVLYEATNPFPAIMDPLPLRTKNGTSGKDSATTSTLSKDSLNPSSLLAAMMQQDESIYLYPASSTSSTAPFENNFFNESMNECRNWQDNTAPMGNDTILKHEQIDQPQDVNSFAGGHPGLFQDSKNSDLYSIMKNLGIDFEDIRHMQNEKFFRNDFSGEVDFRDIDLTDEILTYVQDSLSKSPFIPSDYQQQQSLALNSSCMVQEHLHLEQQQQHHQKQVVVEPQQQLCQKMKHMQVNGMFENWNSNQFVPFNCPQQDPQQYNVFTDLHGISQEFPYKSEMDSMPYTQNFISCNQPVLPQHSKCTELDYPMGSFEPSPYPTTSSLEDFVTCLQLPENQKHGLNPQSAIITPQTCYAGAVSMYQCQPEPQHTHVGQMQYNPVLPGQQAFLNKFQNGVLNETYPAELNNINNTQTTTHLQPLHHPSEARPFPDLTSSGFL

[5] = system: MMP-3; settings: dermal fibroblasts; cited from earlier work
[6] = system: fibronectin; settings: dermal fibroblasts; cited from earlier work
[7] = system: rhytids and wrinkles on the face; experiment: Topical use of 0.5% kynurenic acid cream on facial rhytids and wrinkles (self-reported, visual inspection); format: in vivo, human; settings: person, approx. 3 mg per application
Source text: (§1) Initial dermatological effects can be followed by visual inspection of the site.
as §1

[8] = system: UVB-induced wrinkle formation; settings: animal model (Kim, 2022); cited from earlier work

Compound | collagen 1 expression [1] | MMP-1 relative to controls [2] | collagen relative to controls [2] | MMP-1 expression [3] | AhR agonist / antagonist activity [4] | MMP-3 expression [5] | fibronectin expression [6] | visibility of rhytids and wrinkles (user-reported) ([7]; topical cream 0.5% kynurenic acid by weight once a day, approx. 80 micrograms per square cm, after a 2-month period) | appearance and visibility of rhytids and wrinkles (subject-reported) ([7]; topical cream 0.5% kynurenic acid by weight twice daily, approx. 60 micrograms per square cm, approx. two-month period) | UVB-induced wrinkle formation [8]
Nc1ccccc1C(=O)CC(N)C(=O)O (racemic) [kynurenine] | suppress collagen production | increased | decreased | increase MMP production | AhR agonists |  |  |  |  | 
O=C(O)c1cc(=O)c2ccccc2[nH]1 [kynurenic acid] | downregulate; also recorded: suppress collagen production |  |  | increase expression; also recorded: increase MMP production; also recorded: upregulate |  | increase expression; also recorded: upregulate | downregulate | less visible and less noticeable | perceptible and noticeable reduction | 
Nc1nc2ncc(CNc3ccc(C(=O)N[C@@H](CCC(=O)O)C(=O)O)cc3)nc2c(=O)[nH]1 [folic acid] |  |  |  |  | AhR antagonists |  |  |  |  | helped reduce; also recorded: ameliorated
vitamin B12 |  |  |  |  | AhR antagonists |  |  |  |  | helped reduce; also recorded: ameliorated
